Laboratory results reported in article PMC10897196, “Structure–activity characteristics of phenylalanine analogs selectively transported by L-type amino acid transporter 1 (LAT1)” (Scientific Reports, 2024).
Like-named read-outs stand apart in the source and are kept apart here.

Biological target: T1, human LAT2 (Homo sapiens, UniProt Q9UHI5)
T1 construct: expressed in transfected cells
T1 sequence (Q9UHI5 1-535): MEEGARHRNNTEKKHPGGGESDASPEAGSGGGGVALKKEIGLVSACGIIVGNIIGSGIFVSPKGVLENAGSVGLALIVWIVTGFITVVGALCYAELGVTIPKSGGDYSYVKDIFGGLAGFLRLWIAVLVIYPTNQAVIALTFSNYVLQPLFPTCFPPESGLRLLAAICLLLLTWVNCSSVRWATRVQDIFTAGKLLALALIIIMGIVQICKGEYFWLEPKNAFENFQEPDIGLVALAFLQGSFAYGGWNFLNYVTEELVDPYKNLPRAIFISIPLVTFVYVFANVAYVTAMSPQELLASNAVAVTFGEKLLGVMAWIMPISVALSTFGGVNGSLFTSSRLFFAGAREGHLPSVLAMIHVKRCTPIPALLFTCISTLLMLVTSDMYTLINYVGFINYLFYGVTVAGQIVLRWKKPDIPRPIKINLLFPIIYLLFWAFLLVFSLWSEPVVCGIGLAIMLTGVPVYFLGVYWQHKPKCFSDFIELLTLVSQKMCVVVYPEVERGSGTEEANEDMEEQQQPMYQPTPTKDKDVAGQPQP
T1 sequence (P08195 1-529 partner): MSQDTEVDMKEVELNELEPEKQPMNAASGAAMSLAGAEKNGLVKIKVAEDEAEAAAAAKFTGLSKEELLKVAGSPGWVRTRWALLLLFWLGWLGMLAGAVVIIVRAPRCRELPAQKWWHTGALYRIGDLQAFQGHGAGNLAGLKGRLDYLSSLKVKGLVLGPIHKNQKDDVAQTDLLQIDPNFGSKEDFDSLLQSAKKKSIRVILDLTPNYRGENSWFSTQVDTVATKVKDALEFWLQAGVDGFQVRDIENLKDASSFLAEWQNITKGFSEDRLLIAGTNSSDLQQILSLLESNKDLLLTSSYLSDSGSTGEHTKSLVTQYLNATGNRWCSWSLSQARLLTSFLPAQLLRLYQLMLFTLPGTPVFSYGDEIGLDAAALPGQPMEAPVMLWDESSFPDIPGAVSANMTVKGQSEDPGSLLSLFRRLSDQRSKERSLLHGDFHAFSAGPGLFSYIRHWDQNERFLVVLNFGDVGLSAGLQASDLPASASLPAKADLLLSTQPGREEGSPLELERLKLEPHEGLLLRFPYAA
Assay: Inhibition of L-[14C]alanine uptake in HEK293-hLAT2 cells
Type: cell-based
Description: In this study, we used the HEK293 cells stably expressing human LAT1 or human LAT2, which form a heterodimeric complex with endogenous 4F2hc (CD98hc), required for plasma membrane localization. We first explored the impact of halogen group positioning in the benzene ring of Phe (Fig. 1) on its interaction with LAT1 and LAT2. […] We conducted inhibition experiments to measure the uptake of L-[^14C]leucine by LAT1 and L-[^14C]alanine by LAT2 in the presence or absence of Phe derivatives with an iodo group at position 2, 3, or 4 in the benzene ring.
The inhibition experiments were performed as described previously. HEK293-hLAT1 (1.5 × 10^5 cells/well) or HEK293-hLAT2 (2 × 10^5 cells/well) cells were plated onto poly-D-lysine-coated 24-well plates (Corning, New York, USA). Following a 2-day culture period, the uptake of 1 μM L-[^14C]leucine or L-[^14C]alanine was measured for 1 min in the absence or presence of non-radiolabeled test compounds at concentrations of 10, 30, and 100 μM. Radioactivity was quantified using a β-scintillation counter (LSC-3100; Aloka, Tokyo, Japan), and protein concentrations were determined with a Micro BCA Protein Assay Kit (Thermo Fisher Scientific, Rockford, IL). To calculate Ki values, the concentration-dependent uptake of L-[^14C]leucine or L-[^14C]alanine was analyzed in the presence and absence of test compounds[49]. The data were plotted against substrate concentration and fitted to Michaelis–Menten kinetics. Ki values were derived using nonlinear regression analysis with the enzyme kinetics inhibition module in GraphPad Prism software (Version 10.0.2; GraphPad Software Inc., San Diego, CA, USA).

N[C@]1(C(=O)O)CCc2ccccc2C1 [bicyclic-Phe, (R)-2-amino-1,2,3,4-tetrahydro-2-naphthoic acid] was tested, and the “Inhibition of LAT2-mediated L-[14C]alanine uptake (in words, rank order)” value (1 μM L-[14C]alanine, 1 min, compounds at 10, 30, 100 μM) was “minimal inhibition”, the Ki (L-[14C]alanine uptake, HEK293-hLAT2, mean ± S.E.M., n = 3–4, read-out: Ki (μM) LAT2) was 3750 ± 740 µM and the Ki (as quoted in the discussion, read-out: Ki value for LAT2) was about 3800 µM.
